Laboratory results from patent US20240208939A1, “TREATMENT OF AUTOIMMUNE AND INFLAMMATORY DISORDERS WITH INHIBITORS OF BET FAMILY BDII BROMODOMAIN” (POSEIDON INNOVATION 1, INC., priority 2022, published 2024).

Key:
IL-17A, IL17F and IL-22 = settings: Gilan et al. 2020; cited from earlier work
BRD4 BD2 = target: T1, BRD4 BD2 (Homo sapiens, UniProt O60885); experiment: Target Engagement Intracellular BET BRD Assay (NanoBRET); assay type: cell-based; settings: read-out: BRD4 BD2 TE IC50
T1 construct: BD2 TE; expressed in transfected cells
Description: 3× Complete Substrate plus Inhibitor Solution in Assay Medium (Opti-MEM® I Reduced Serum Medium, no phenol red, and no serum) was prepared just before measuring BRET. This solution consisted of a 1:166 dilution of NanoBRET™ Nano-Glo® Substrate plus a 1:500 dilution of Extracellular NanoLuc® Inhibitor in Assay Medium. For a 96-well plate, 30 μl of NanoBRET™ Nano-Glo® Substrate, 10 μl of Extracellular NanoLuc® Inhibitor and 4,960 μl of Assay Medium were mixed to produce 5 ml of 3× Complete Substrate plus Inhibitor Solution, followed with gently mixing by inversion 5-10 times in a conical tube. (The final concentration of Extracellular NanoLuc® Inhibitor in the 3× solution was 60 μM, for a working concentration of 20 μM. Use 3× Complete Substrate plus Inhibitor Solution within 2 hours. Discard any remaining solution).
50 μl of 3× Complete Substrate plus Inhibitor Solution were added to each well of the 96-well plate, followed by incubation for 2-3 minutes at room temperature. Donor emission wavelength (e.g., 450 nm) and acceptor emission wavelength (e.g., 610 nm) were measured by using the GloMax® Discover System or other NanoBRET™ Assay-compatible luminometer (it is recommended measuring BRET within 10 minutes after adding NanoBRET™ Nano-Glo™ Substrate plus Extracellular NanoLuc® Inhibitor Solution. However, BRET can be measured for up to 2 hours, but there will be some loss of luminescence signal).
To generate raw BRET ratio values, the acceptor emission value (e.g., 610 nm) was divided by the donor emission value (e.g., 450 nm) for each sample [to correct for background, the BRET ratio was substracted in the absence of tracer (average of no-tracer control samples) from the BRET ratio of each sample]. Raw BRET units were converted to milliBRET units (mBU) by multiplying each raw BRET value by 1,000. NanoBRET™ ratio equation, including optional background correction is shown below:
BRET Ratio=[(Acceptorsample÷Donorsample)−(Acceptorno-tracer control÷Donorno-tracer control)]×1,000.

[1] = tested on: IMQ-mouse model of psoriasis; experiment: IMQ induced psoriasis mouse model, PASI scoring; assay type: in vivo, mice; settings: daily dosing po, compared to vehicle treatment
Description: Except for the control group, all other groups received a daily topical dose of 60 mg of 5% commercially available IMQ cream on the shaved back for 7 consecutive days. The same amount of Vaseline was applied to the same areas of the animals in the negative control group. Vehicle and DF-6129 were dosed daily (po) for 8 days, from Day −1 to Day 7. Dosing time: 1 hour prior to IMQ application. Psoriasis Area and Severity Index (PASI) Scoring The Psoriasis Area and Severity Index (PASI) scoring system was used to evaluate the severity of skin inflammation of the mouse model. Erythema, scaling, and skin thickness was scored independently from 0-4 as (daily scoring) as below: [table] All statistical analysis were conducted, and the level of significance was set at P<0.05. The group means and standard deviation were calculated for all measurement parameters as study designed. One-way ANOVA comparisons among the groups was performed with software SPSS 16.0.

IL-23 = experiment: Back skin PCR analysis in IMQ-treated mice, IL-23 mRNA; assay type: in vivo; settings: 10 mg/kg, compared with vehicle treatment alone
Description: (§1) Except for the control group, all other groups received a daily topical dose of 60 mg of 5% commercially available IMQ cream on the shaved back for 7 consecutive days. The same amount of Vaseline was applied to the same areas of the animals in the negative control group.
(§2) Vehicle and DF-6129 were dosed daily (po) for 8 days, from Day −1 to Day 7. Dosing time: 1 hour prior to IMQ application.
(§3) Animals were euthanized 4 h post last dosing on day 7 (3 h after applying with imiquimod cream) and back skin was be collected. The skin tissues were divided into two parts. One half was flash frozen and stored at −80° C. for PCR analysis (IL-17A, IL-17F, IL-22 and IL-23), the other half was fixed in 10% formalin for HE staining and scoring.
(§4) All statistical analysis were conducted, and the level of significance was set at P<0.05. The group means and standard deviation were calculated for all measurement parameters as study designed. One-way ANOVA comparisons among the groups was performed with software SPSS 16.0.

MCP-1 = experiment: PBMC MCP-1 HTRF Assay; assay type: cell-based; settings: LPS 200 ng/mL, 24 hours
Description: The cryopreserved PBMC cells were thawed in a 37° C. water bath immediately after taking out from liquid nitrogen storage. A sterile pipette was used to transfer the content to sterile […] centrifuge tube containing […] of complete growth medium (Gibico 1640) and centrifuge at 300×g for 10 min. Supernatant was discarded, and cell pellet was resuspended in 10 mL of complete growth media in a sterile 15 mL tube. The cells were rested for 1 h at 37° C. (1×10^6 cells/mL). The cells were spinned down at 300×g for 10 minutes after 1 h. Supernatant was discard, and cell pellet was resuspended in complete growth medium, the cells number and viability were measured by AO/PI staining. In a 384-well white plate, PBMCs at 25 k cells/well (15 μl per well) were seeded with Gibico 1640 medium. The compound stock was serial diluted into […] by 3-fold dilution. 20 nL DMSO, 20 nL test compounds DMSO stock (serial diluted) were transferred in assay plate by using ECHO550, incubate for 30 min at 37° C., 5% CO2. LPS was diluted by Gibico 1640 medium.add 5 μl per well. The final concentration (200 ng/mL) was incubated for 24 hours at 37° C. with 5% CO2.
For MCP-1 HTRF, 2.5 μl/well MCP-1 donor antibody and 2.5 μl/well MCP-1 acceptor antibody were added into 384 well plate, following by centrifuging at 190×g for 1 min and incubating at room temperature for 2 h. The plate was read on the Envision.

IL-17A = experiment: Back skin PCR analysis in IMQ-treated mice, IL-17A mRNA; assay type: in vivo; settings: 10 mg/kg, compared with vehicle treatment alone
Description: as §1, §2, §3, §4

IL-22 = experiment: Back skin PCR analysis in IMQ-treated mice, IL-22 mRNA; assay type: in vivo; settings: 10 mg/kg, compared with vehicle treatment alone
Description: as §1, §2, §3, §4

IL-17 = experiment: Serum IL-17 ELISA in IMQ-mouse model of psoriasis; assay type: in vivo, mice; settings: compared to vehicle treatment alone, 4 h post last dosing on day 7
Description: Except for the control group, all other groups received a daily topical dose of 60 mg of 5% commercially available IMQ cream on the shaved back for 7 consecutive days. The same amount of Vaseline was applied to the same areas of the animals in the negative control group. Vehicle and DF-6129 were dosed daily (po) for 8 days, from Day −1 to Day 7. Dosing time: 1 hour prior to IMQ application. Animals were euthanized 4 h post last dosing on day 7 (3 h after applying with imiquimod cream). Whole Blood was collected via cardiac puncture from all group animals. Serum samples were separated by centrifugation at 4° C. at 8000 g for 5 minutes, total 70 samples. All serum samples were stored at −80° C. for IL-17 analysis. All statistical analysis were conducted, and the level of significance was set at P<0.05. The group means and standard deviation were calculated for all measurement parameters as study designed. One-way ANOVA comparisons among the groups was performed with software SPSS 16.0.

Q: For `CNC(=O)c1cc(C(=O)NC2CC2)cn(Cc2ccccc2)c1=O` [GSK620], which “expression of disease relevant pro-inflammatory genes, including IL-17A, IL17F and IL-22” value (IL-17A, IL17F and IL-22) is on record?
A: reduced the expression

Q: Which IC50 (BRD4 BD2) does the source give for `Cn1ccn(-c2ccc(-c3cc(F)cc(-c4cccc(N5CCN(C(C)(C)C)CC5)c4)c3O)cc2Cl)c1=O` [Example I-1, 1-(3″-(4-(tert-butyl)piperazin-1-yl)-3-chloro-5′-fluoro-2′-hydroxy-[1,1′:3′,1″- terphenyl]-4-yl)-3-methyl-1,3-dihydro-2H-imidazol-2-one] here?
A: 0.323 nM

Q: And the erythema [1]?
A: significant decreases

Q: And the scaling [1]?
A: significant decreases

Q: What about the skin thickening [1] of the same molecule?
A: significant decreases

Q: And the “total psoriasis (PASI) score” value [1]?
A: significantly reduced

Q: What about the “mRNA levels of IL-23 from the back skin” value (IL-23) of the same molecule?
A: significantly reduced

Q: What about the IC50 (MCP-1) of the same molecule?
A: 1.51 nM

Q: What about the “mRNA levels of IL-17A from the back skin” value (IL-17A) of the same molecule?
A: significantly reduced

Q: What about the “mRNA levels of IL-22 from the back skin” value (IL-22) of the same molecule?
A: significantly reduced

Q: What about the “serum IL-17 levels” value (IL-17) of the same molecule?
A: significantly reduced
